Key:
[1] = tested on: NMDA-induced glaucoma rat model; experiment: Protective effect against NMDA-induced nerve damage, administration by instillation to the eye; type: in vivo, Sprague-Dawley (SD) rats; conditions: Test 2, FIG. 1: 1% memantine solution in PBS instilled twice a day for five days; 5 μL of 4 mM NMDA intravitreously; vs base (PBS)
From the text: (§1) In recent years the glutamate analogue NMDA (N-methyl-D-aspartate) has been widely reported to be one of causative agents of neurodegenerative diseases including Alzheimer's disease. In the ophthalmic field, NMDA is considered to be involved in optic nerve damage in glaucoma (Brain Research Bulletin, 81 (2010) 349-358). Accordingly, in this experiment rat models with glaucoma induced by NMDA were used to evaluate the neuroprotective effect of GGA.
To Sprague-Dawley (SD) rats (n=8), an eye drop containing 1% (w/v) GGA (all-trans form) or a control eye drop not containing GGA was pre-administered by instillation to the eye twice a day for five days. On the fifth day after the start of the instillation, 5 μL of 4 mM NMDA was intravitreously administered to induce nerve damage (Test 1). […]
(§2) Three days after the administration of NMDA, the eyeballs were harvested, fixed in half Karnovsky's fixative solution for 24 hours, embedded in paraffin, thin sectioned and stained with hematoxylin-eosin (HE) to prepare histopathological sections. The histological sections were observed under an optical microscope and the thickness (μm) of the inner plexiform layer (IPL) of the retina was measured. Based on the thickness of the inner plexiform layer (IPL) of the retina, the neuroprotective effect of the tested eye drops was evaluated.

[2] = tested on: human corneal epithelial cells (HCET); experiment: Cell permeability (Transwell), HCET; type: in vitro ADME; conditions: HCET on Transwell; 0.1% GGA (all-trans:5Z-mono-cis 6:4); 30 minutes or 4 hours; compared with MDCK-I; FIG. 3
Method: (§3) The following test was performed using three types of cells, human corneal epithelial cells (HCET), human nasal septum squamous carcinoma cells (RPMI-2650), and canine renal tubular epithelial cells (MDCK-I), which are often used as an intestinal permeability assay model. The medium used for culture of each type of cells is shown below.
HCET: a liquid medium containing an equal ratio of Dulbecco's modified Eagle's basal medium/Ham's F12 (DMEM/F-12, Invitrogen) supplemented with 0.5% DMSO (Wako Pure Chemical Industries, Ltd.), 10 ng/mL epidermal growth factor (R&D), 5 μg/mL insulin (Invitrogen) and 5% (v/v) fetal calf serum (Daiichi Pure Chemicals)
GGA having a weight ratio of the all-trans form to the 5Z-mono-cis form of 6:4 (Wako Pure Chemical Industries, Ltd.) was used as a test substance. Amounts of 100 mg of GGA and 0.25 mg of α-tocopherol (Wako Pure Chemical Industries, Ltd.) as an antioxidant were weighed and dissolved in 789 mg of 100% ethanol. […]
(§4) Each type of cells was seeded onto a Transwell 24-well microplate (CORNING) at 5.0×10, cells per well and cultured under 5% CO2 at 37° C. […] After the culture period, the culture supernatant in the Transwells was recovered and the residual GGA in the supernatant was measured. […]
(§5) The concentration of GGA was measured as follows. […]

[3] = tested on: retinal detachment-induced animal; conditions: intraperitoneal administration; cited from earlier work
[4] = tested on: multiple sclerosis mouse model; conditions: oral administration; cited from earlier work
[5] = Decomposition of teprenone eye drop by direct sunlight in containers; type: physicochemical; conditions: direct sunlight 24 hours; Container C (polyethylene terephthalate); vs aluminum foil covered control
Method: An eye drop containing teprenone was prepared. Specifically, the eye drop was prepared as follows. To surfactants (polysorbate 80 and POE castor oil) warmed to 65° C., teprenone was added and dissolved under stirring in hot water bath at 65° C. for 2 minutes. Water at 65° C. was added, a buffer solution was added, and the mixture was mixed under stirring to give a homogeneous solution. The pH and osmotic pressure were adjusted with hydrochloric acid or sodium hydroxide. The resulting solution was filtered through a membrane filter with a pore size of 0.2 μm (bottle top filter, Thermo Fisher Scientific) to give a clear sterile eye drop.
The eye drop was separately poured, using a glass volumetric pipette, into 10- to 15-mL plastic or glass containers each in an amount of 5 mL (5 g) and the containers were sealed. These eye drops were placed in the upright position on a test-tube stand and left to stand under direct sunlight for 24 hours (test samples). […]
The amount of teprenone contained in the test or control eye drops was measured by HPLC and the amount of decomposition (mg/100 mL) by light irradiation was calculated. The amount of decomposition by light irradiation was calculated as follows: […]

glaucoma rat model = conditions: intraperitoneal administration; cited from earlier work
[6] = tested on: human nasal septum squamous carcinoma cells (RPMI-2650); experiment: Cell permeability (Transwell), RPMI-2650; type: in vitro ADME; conditions: RPMI-2650 on Transwell; 0.1% GGA (all-trans:5Z-mono-cis 6:4); 30 minutes or 4 hours; compared with MDCK-I; FIG. 3
Method: as §3
RPMI-2650: a minimum essential medium (MEM, Invitrogen) supplemented with 10% (v/v) fetal calf serum (Daiichi Pure Chemicals)
GGA having a weight ratio of the all-trans form to the 5Z-mono-cis form of 6:4 (Wako Pure Chemical Industries, Ltd.) was used as a test substance. Amounts of 100 mg of GGA and 0.25 mg of α-tocopherol (Wako Pure Chemical Industries, Ltd.) as an antioxidant were weighed and dissolved in 789 mg of 100% ethanol. The GGA dissolved in ethanol was diluted and dissolved in serum-free medium appropriate for each type of cells to a final concentration of 0.1 w/v %.
as §4, with “C. To each of the Transwells' lower chambers, 600 μL of the same medium as used for cell culture was added.” for “C.”
as §5

[7] = tested on: NMDA-induced glaucoma rat model; experiment: Protective effect against NMDA-induced nerve damage, instillation into the nose and administration to the oral cavity; type: in vivo, Sprague-Dawley (SD) rats; conditions: vs no GGA
Method: as §1
To Sprague-Dawley (SD) rats (n=6), 20 μL of 100% (w/v) GGA (all-trans form) was intranasally administered once a day for five days and after each administration the rats were maintained under anesthesia for 30 minutes. On the third day after the start of the administration of GGA, 5 μL of 4 mM NMDA was intravitreously administered to induce nerve damage. […]
as §2, with “in” for “in half”

[8] = tested on: mouse with retinal injury induced by ischemia; conditions: oral administration; cited from earlier work
[9] = tested on: mouse with photoreceptor cell damage caused by light irradiation; conditions: oral administration; cited from earlier work

Molecule	neuroprotective effect based on thickness of the inner plexiform layer (IPL) of the retina [1]	permeability of GGA through cells [2]	apoptosis of photoreceptor cells [3]	expression of heat shock protein 70 [3]	cell loss in the ganglion [4]	number of degenerating axons in the optic nerve [4]	visual function [4]	Amount of decomposition [5]	expression of heat shock protein 72 (glaucoma rat model)	optic nerve damage (glaucoma rat model)	retinal ganglion cell death (glaucoma rat model)	permeability of GGA through cells [6]	neuroprotective effect based on thickness of the inner plexiform layer (IPL) of the retina ([7]; FIG. 2: 20 μL of 100% (w/v) GGA (all-trans form) intranasally once a day for five days)	neuroprotective effect based on thickness of the inner plexiform layer (IPL) of the retina ([7]; FIG. 2: 100 μL of 100% (w/v) GGA (all-trans form) to the oral cavity once a day for five days)	number of surviving retinal neurons [8]	thioredoxin and heat shock protein 72 in the retinal pigment epithelium [9]
CC12CC3CC(C)(C1)CC(N)(C3)C2 [memantine]	no neuroprotective effect															
geranylgeranylacetone [GGA]		higher than that through MDCK-I	reduced the apoptosis of photoreceptor cells significantly	induced the expression of heat shock protein 70	prevented cell loss in the ganglion	reduced the number of degenerating axons in the optic nerve	improved the visual function	significantly inhibited the decomposition of GGA	induced the expression of heat shock protein 72	ameliorated optic nerve damage	reduced retinal ganglion cell death	higher than that through MDCK-I	apparent neuroprotective effect	apparent neuroprotective effect	significantly increased the number of surviving retinal neurons	induced thioredoxin and heat shock protein 72 in the retinal pigment epithelium
